Source: patent US20090306219A1, “TOPICAL USE OF PLANT EXTRACT FOR SKIN DETOXIFICATION” (priority 2008, published 2009)

What was measured:
[1] = test system: glyoxalase I; test: Quantification of Glyoxalase I via immunoassay (western blot) in keratinocyte culture; type: cell-based; conditions: 0.0005%, keratinocyte culture treated 24 hrs
Description: The blots were then transferred and probed with a fluorescent anti-body to glyoxalse I, purchased from Santa Cruz Biotechnology. Absorbance was measured and graphed.

[2] = test system: glutathione; test: ELISA quantification of glutathione in keratinocyte culture; type: cell-based; conditions: 0.0005%, Treatment
Description: In simple terms, in ELISA an unknown amount of antigen is affixed to a surface, and then a specific antibody is washed over the surface so that it can bind to the antigen. […] This antibody is linked to an enzyme, and in the final step a substance is added that the enzyme can convert to some detectable signal. Thus in the case of fluorescence ELISA, when light is shone upon the sample, any antigen/antibody complexes will fluoresce so that the amount of antigen in the sample can be measured.
The ELISA kit used in this experiment was purchased from Cayman Chemicals. The experiment was performed as per the manufacturer's directions.

C=CCSSSCC=C [Diallyl Trisulfide]
Inv OD 1 ([1]; replicate 1): 91.6
OD1 ([1]; replicate 1): 125.205
Inv OD 2 ([1]; replicate 2): 90.7
OD 2 ([1]; replicate 2): 126.011
Inv OD 3 ([1]; replicate 3): 71.1
OD 3 ([1]; replicate 3): 145.641
Inv OD 4 ([1]; replicate 4): 129.4
OD4 ([1]; replicate 4): 87.372
Inv OD 5 ([1]; replicate 5): 93.0
OD 5 ([1]; replicate 5): 123.78
Inv OD 6 ([1]; replicate 6): 86.2
OD 6 ([1]; replicate 6): 130.525
Inv OD Mean ([1]; significantly different from Untreated (mean 66.5)): 93.7
Glut Mean ([2]; Untreated mean 19): 21
Glut 1 ([2]; replicate 1, Untreated 18): 20
abs 1 ([2]; replicate 1 absorbance): 0.033
Glut 2 ([2]; replicate 2, Untreated 20): 22
abs 2 ([2]; replicate 2 absorbance): 0.036
Glut 3 ([2]; replicate 3, Untreated 20): 20
abs 3 ([2]; replicate 3 absorbance): 0.034
